Source: patent publication US10800741B2 (ANCUREALL PHARMACEUTICAL (SHANGHAI) CO., LTD., priority 2017, dated 2020)

Experiments:
[1] = system: DMS114; assay: In vitro growth inhibition of DMS114 cells; format: cell-based; details: Homo sapiens, DMS-114, FGFR1 amp
Protocol: (§1) Adherent cells were digested with 0.25% trypsin-EDTA (Gibco). Suspension culture cells were collected by centrifugation (1700 rpm, 3 minutes). The supernatant was discarded and the cells were counted. According to each cell growth cycle, different concentrations of cells were prepared (5˜10×10^4 cells per ml), and inoculated to 96-well plates (Corning), with 100 μl per well, and incubated overnight at 37° C., 5% CO2. The next day, the test compound was added to the cultured cells (2 wells in parallel). The final concentration of the solvent was less than 1/1,000. The cells were further cultured for 3 to 5 days and assayed by MTT.
(§2) The MTT test reagent was a Dojindo CCK8 kit and the Microplate Reader was a THERMO […] FC instrument.
(§3) The adherent cells were taken out from the cell culture medium, and immediately added to a freshly prepared complete medium containing 10% CCK8 (5% FBS), 100 ul per hole. The suspended cells were directly added to a CCK8 reagent until reaching a final concentration of 10% and cultured for 1 to 4 hours. When a dark yellow color could be observed in the solvent control wells, the absorbance value at OD450 nm was measured and the cell growth rate was calculated according to the following formula: Cell Growth Rate (%)=100×(T−T0)/(C−T0)
(§4) T=optical density of drug-treated cell wells−optical density of blank control wells; T0=optical density of cell wells before drug treatment−optical density of blank control wells; C=optical density of solvent control wells−optical density of blank control wells. […] The experiments were repeated 1 to 3 times and a statistical analysis of data was conducted.
(§5) Mutations in the FGFR1-4 gene often occur in different types of cancer patients. In order to test the growth inhibition activity of the present compound against tumor cells expressing different FGFR variants, tumor cell lines expressing representative FGFR1-4 were selected for further determining the activity of compounds 25, 66, 38 and 95 of the present invention. BGJ398, a selective inhibitor of FGFR1-4, was used as the control compound. The specific test method is the same as test example 1.

[2] = system: JHH-7; assay: In vitro growth inhibition of JHH-7 cells; format: cell-based; details: Homo sapiens, JHH7, FGFR3+++, FGFR4 +++
Protocol: as §1, §2, §3, §4, §5

[3] = system: PLC/PRF/5; assay: In vitro growth inhibition of PLC/PRF/5 cells; format: cell-based; details: Homo sapiens, FGFR3+++, FGFR4 +++
Protocol: as §1, §2, §3, §4, §5

[4] = system: Karpas 299 (NPM-ALK); assay: In vitro growth inhibition of Karpas 299 tumor cells (MTT/CCK8); format: cell-based, Human; details: Homo sapiens, KARPAS-299; in vitro growth inhibition (or induction of apoptosis), cells cultured 3 to 5 days, MTT (CCK8); read-out: IC50 Karpas 299 (NPM-ALK)
[5] = system: AN3-CA; assay: In vitro growth inhibition of AN3-CA cells; format: cell-based; details: Homo sapiens, FGFR2 mutant
Protocol: as §1, §2, §3, §4, §5

[6] = system: KATO III (FGFR2 amp); assay: In vitro growth inhibition of KATO III tumor cells (MTT/CCK8); format: cell-based, Human; details: Homo sapiens, KATO III; in vitro growth inhibition (or induction of apoptosis), cells cultured 3 to 5 days, MTT (CCK8); read-out: IC50 KATO III (FGFR2 amp)
[7] = system: AGS; assay: In vitro growth inhibition of PI3KCA amplified/mutant tumor cells AGS; format: cell-based; details: Homo sapiens, PI3KCA E453K/E545A, KRAS G12D, read-out: IC50 growth inhibition
Protocol: as §1, with “Suspension” for “Adherent cells were digested with 0.25% trypsin-EDTA (Gibco). Suspension”
(§6) The adherent cells were taken out from the cell culture medium, and immediately added to a freshly prepared complete medium containing 10% CCK8 (5% FBS), 100 ul per hole. The suspended cells were directly added to a CCK8 reagent until reaching a final concentration of 10% and cultured for 1 to 4 hours.
as §4

[8] = system: A2780; assay: In vitro growth inhibition of PI3KCA amplified/mutant tumor cells A2780; format: cell-based; details: Homo sapiens; A2780; PIK3CA E365K; read-out: IC50 growth inhibition
Protocol: as §1, with “Suspension” for “Adherent cells were digested with 0.25% trypsin-EDTA (Gibco). Suspension”
as §6, §4

[9] = system: Cal-120; assay: In vitro growth inhibition of Cal-120 cells; format: cell-based; details: Homo sapiens, FGFR1 amp
Protocol: as §1, §2, §3, §4, §5

[10] = system: RT112/84; assay: In vitro growth inhibition of RT112/84 cells; format: cell-based; details: Homo sapiens, FGFR3-TACC3
Protocol: as §1, §2, §3, §4, §5

[11] = system: SK-OV-3; assay: In vitro growth inhibition of PI3KCA amplified/mutant tumor cells SK-OV-3; format: cell-based; details: Homo sapiens; SK-OV-3; PI3KCA H1047R; HER2 amp; read-out: IC50 growth inhibition
Protocol: as §1, with “Suspension” for “Adherent cells were digested with 0.25% trypsin-EDTA (Gibco). Suspension”
as §6, §4

[12] = system: A375; assay: In vitro growth inhibition of A375 cells; format: cell-based; details: Homo sapiens, A-375, BRAF V600E, FGFR2 mutant
Protocol: as §1, §2, §3, §4, §5

[13] = system: HCT116; assay: In vitro growth inhibition of PI3KCA amplified/mutant tumor cells HCT116; format: cell-based; details: Homo sapiens; HCT-116; PI3KCAH1047R; KRAS G13D; read-out: IC50 growth inhibition
Protocol: as §1, with “Suspension” for “Adherent cells were digested with 0.25% trypsin-EDTA (Gibco). Suspension”
as §6, §4

[14] = system: KYSE70; assay: In vitro growth inhibition of PI3KCA amplified/mutant tumor cells KYSE70; format: cell-based; details: Homo sapiens, KYSE-70; KYSE70; PI3KCA amp; KIT G779C; read-out: IC50 growth inhibition
Protocol: as §1, with “Suspension” for “Adherent cells were digested with 0.25% trypsin-EDTA (Gibco). Suspension”
as §6, §4

IC50 [4] [nM] | IC50 [6] [nM] | IC50 [7] [nM] | IC50 [8] [nM] | IC50 [11] [nM] | IC50 [12] [nM] | IC50 [13] [nM] | IC50 [14] [nM] | SMILES | IC50 [1] [nM] | IC50 [2] [nM] | IC50 [3] [nM] | IC50 [5] [nM] | IC50 [9] [nM] | IC50 [10] [nM]
11.7 | 0.18 | 41.1 | 9.1 | 32.3 | 16.7 | 11.9 | 9.7 | COc1cc2nccc(Oc3ccc(NC(=O)Nc4cc(C(C)(C)C)nn4C)c(Cl)c3Cl)c2cc1C(N)=O [Compound 38, 4-{4-[3-(5-tert-butyl-2-methyl-2H-pyrazol-3-yl)-ureido]-2,3-dichloro-phenoxy}-7-methoxyquinolin-6-carboxamide] | 4.1 | 9.89 | 2.08 | 3.67 | 9.77 | 10.1
44.1 | 0.08 | 43.5 | 7.68 | 42.3 | 31.5 | 26.7 | 29.6 | COCCOc1cc2nccc(Oc3ccc(NC(=O)Nc4cc(C(C)(C)C)n[nH]4)c(Cl)c3)c2cc1NC(C)=O [Compound 66, N-[4-{4-[3-(5-tert-butyl-2H-pyrazol-3-yl)-ureido]-3-chloro-phenoxy}-7-(2-methoxy-ethoxy)-quinolin-6-yl]-acetamide] | 3.92 | 12.9 | 2.67 | 3.95 | 9.77 | 25.6
7.5 | 0.91 | 39.9 | 9.2 | 26.4 | 62.1 | 33.2 | 18.9 | CN1CCN(CCCOc2cc3nccc(Oc4ccc(NC(=O)Nc5cc(C(C)(C)C)n[nH]5)c(Cl)c4Cl)c3cc2C(N)=O)CC1 [Compound 95] | 2.94 | 17.6 | 2.37 | 3.89 | 9.77 | 9.76
